Five compounds from US11858910B2, “Pyridinylmethylenepiperidine derivatives and uses thereof” (SUNSHINE LAKE PHARMA CO., LTD., priority 2018, dated 2024) can be followed below.

Where two headings read alike, the source gives them in different places.

Data set [1] deals with T1, human 5-HT1F receptor (Homo sapiens, UniProt P30939).
T1 construct: expressed in transfected cells; host or cells: CHO-K1
T1 sequence (P30939 1-366): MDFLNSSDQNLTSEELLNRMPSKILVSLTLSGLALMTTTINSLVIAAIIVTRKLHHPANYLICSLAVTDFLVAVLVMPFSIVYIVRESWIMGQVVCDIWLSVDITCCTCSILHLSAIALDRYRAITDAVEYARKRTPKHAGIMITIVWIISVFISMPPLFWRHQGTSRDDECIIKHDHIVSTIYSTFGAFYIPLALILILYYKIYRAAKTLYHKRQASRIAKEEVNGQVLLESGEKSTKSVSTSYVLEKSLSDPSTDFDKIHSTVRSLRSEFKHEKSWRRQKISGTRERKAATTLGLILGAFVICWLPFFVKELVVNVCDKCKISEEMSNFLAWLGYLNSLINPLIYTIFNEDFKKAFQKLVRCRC
Nature of the data set: Activating effect on human 5-HT1F receptor transfected CHO-K1 cells (HitHunter cAMP detection kit). It is filed as cell-based. As for the experimental part:
Experimental purposes: To evaluate the activating effect of the compound on CHO-K1 cells transfected human 5-HT1F receptor by using HitHunter cAMP detection kit.
Experimental brief process: CHO-K1 cells were cultured in a 384 microporous plate. The volume of cell culture medium (Assay Complete™ Cell Plating Reagent, DIscoverX) was 20 μL and the cell density was 10,000/well. The cells were cultured overnight at 37° C. and 5% CO2. Then the culture medium was removed, and 15 μL of cAMP Assay Buffer (DIscoverX) was added into each well, and then 5 μL of test sample containing 4× sample (test compound or 5-HT) and 4× forskolin (final concentration of forskolin is 15 μM) was added. The microporous plate was placed at 37° C. for 30 minutes. Then 5 μL of cAMP Antibody Reagent (DiscoverX) and 20 μL of cAMP Working Detection Solution (DiscoverX) were added and incubated in the dark for 1 hour, and then 20 μL of cAMP Solution A was added and incubated in the dark for 3 hours. The microporous plate was placed in the Perkin Elmer Envision™ to read the intensity of the optical signal. The activation rate was calculated by the intensity of the optical signal obtained from testing the compounds with different concentrations ((1−(Y/Z))*100%=the activation rate, wherein, Y represents the intensity of the optical signal adding test sample, and Z represents the intensity of the optical signal adding only forskolin). The dose-effect curve of the compounds was calculated by Prism software, and the concentration of the agonist with half maximum response was calculated and expressed by EC50 value. The results were shown in Table A. 5-HT was used as a positive control drug to ensure the normal experimental system in this experiment.

A short description of data set [2]: Pharmacokinetic evaluation after intravenous or gavage administration to rats. It is filed as in vivo, SD rats. As for the experimental part: (§1) The inventors had evaluated the pharmacokinetics of the compounds of the invention in rats and dogs. Wherein animal information was detailed in Table 1.
(§2) The compound was administered to the animal subjects in the form of 5% DMSO+60% PEG400+35% Saline solution or 10% DMSO+10% Kolliphor HS15+30% PEG400+50% Saline solution. The animals were fasted for 12 hours before administration, but drinking water freely. For the group of intravenous administration, the administration dose is 0.5 mg/kg or 1 mg/kg, and vein blood samples (0.15 mL) were collected at the time points of 0.083, 0.25, 0.5, 1.0, 2.0, 4.0, 6.0, 8.0 and 24 h (dogs) or 0.083, 0.25, 0.5, 1.0, 2.0, 5.0, 7.0 and 24 h (rats) after drug administration. EDTA-K2 as anticoagulant was pre-added into the blood vessel. The plasma solutions were collected by centrifuging each blood sample at 12,000 rpm for 2 minutes and kept at −20° C. or −70° C. For the group of gavage administration, the administration dose is 2.5 mg/kg or 5 mg/kg, and vein blood samples (0.15 mL) were collected at the time points of 0.25, 0.5, 1.0, 2.0, 4.0, 6.0, 8.0 and 24 h (dogs) or 0.25, 0.5, 1.0, 2.0, 5.0, 7.0 and 24 h (rats) after drug administration. EDTA-K2 as anticoagulant was pre-added into the blood vessel. The plasma solutions were collected by centrifuging each blood sample at 12,000 rpm for 2 minutes and kept at −20° C. or −70° C.
(§3) After processing the above plasma sample (the frozen plasma was melted at room temperature and then whirled for 15 seconds. 10 to 20 μL of the plasma was taken out, and whirled with 120 to 150 μL of an acetonitrile solution containing an internal standard for 5 minutes. The mixture was centrifuged for 5 minutes at 4,000 rpm. 100 μL of the supernatant was taken out and mixed with 120 to 150 μL of methanol-water (v/v=1/1)), the concentration of compounds in plasma was analyzed by LC-MS/MS. […] The compound of the invention has better drug properties and better clinical application prospects. Wherein the pharmacokinetic parameters of examples 12 and 19 in rats were detailed in Table B1; the pharmacokinetic parameters of examples 12 and 19 in dogs were detailed in Table B2.

The nature of data set [3]: Pharmacokinetic evaluation after intravenous or gavage administration to dogs. It is filed as in vivo, Beagle dogs. As for the experimental part: as §1, §2, §3
The mark [4] stands for this setting: CHO-K1 cells, forskolin 15 μM, cAMP, read-out: EC50.
Where [5] appears, read: Beagle, dog, in vivo, iv, 0.5 mg/kg.
The mark [6] stands for this setting: beagle, dog, in vivo, po, 2.5 mg/kg.

Turning to `CN1CCC(=Cc2cccc(NC(=O)c3c(F)cc(F)cc3F)n2)CC1` [Example 5, 2,4,6-trifluoro-N-(6-((1-methylpiperidin-4-ylidene)methyl)pyridine-2-yl)benzamide], the concentration for a half-maximal effect (EC50) in data set [1] (setting [4]) worked out at 1.9 nM.

Turning to `CCN1CCC(=C(F)c2cccc(NC(=O)c3c(F)cc(F)cc3F)n2)CC1` [Example 19, 2,4,6-trifluoro-N-(6-(fluoro(1-ethylpiperidin-4-ylidene)methyl)pyridin-2-yl)benzamide], the concentration giving a half-maximal response (EC50) in data set [1] (setting [4]) was found to be 6.8 nM. The compound also showed a F in data set [2] (SD, rat, in vivo, 5 mg/kg) of 105%. Besides, in data set [2] (SD, rat, in vivo, iv, 1 mg/kg), the AUC(0-inf) turned out to be 259 ng·h/mL, the AUC(0-t) turned out to be 240 ng·h/mL, the peak level (Cmax) was 67.7 ng/mL and the MRT inf amounted to 2.95 h. Further, in data set [2] (SD, rat, in vivo, iv, 1 mg/kg), the Tmax was found to be 0.5 h, the Vd was 11.4 L/kg, the clearance was determined as 64.4 mL/min/kg and the half-life is 2.1 h. Besides, in data set [2] (SD, rat, in vivo, po, 5 mg/kg), the AUC(0-inf) worked out at 1320 ng·h/mL, the AUC(0-t) worked out at 1260 ng·h/mL, the concentration peaked (Cmax) at 169 ng/mL and the MRT inf came out at 5.01 h. Also, in data set [2] (SD, rat, in vivo, po, 5 mg/kg), the Tmax turned out to be 3.67 h and the half-life was 3.06 h. This compound gave a F in data set [3] (Beagle, dog, in vivo, 2.5 mg/kg) of 12.4%. In data set [3] (setting [5]), this compound showed an AUC(0-inf) of 634 ng·h/mL, an AUC(0-t) of 632 ng·h/mL, a Cmax of 442 ng/mL and an MRT inf of 1.39 h. In data set [3] (setting [5]), the time to peak (Tmax) amounted to 0.083 h, the Vd is 1.1 L/kg, the clearance is 13.1 mL/min/kg and the half-life was 1.06 h. For the same compound, in data set [3] (setting [6]), the AUC(0-inf) came out at 392 ng·h/mL, the AUC(0-t) turned out to be 356 ng·h/mL, the concentration peaked (Cmax) at 126 ng/mL and the MRT inf came to 3.26 h. In data set [3] (setting [6]), the Tmax was 1 h and the half-life is 1.96 h.

As for `CN1CCC(=C(F)c2cccc(NC(=O)c3ccc(F)cc3F)n2)CC1` [Example 10, 2,4-difluoro-N-(6-(fluoro(1-methylpiperidin-4-ylidene)methyl)pyridine-2-yl)benzamide], the EC50 in data set [1] (setting [4]) is 3 nM.

With `CN1CCC(=Cc2cccc(NC(=O)c3ccc(F)cc3F)n2)CC1` [Example 3, 2,4-difluoro-N-(6-((1-methylpiperidin-4-ylidene)methyl)pyridine-2-yl)benzamide], the EC50 in data set [1] (setting [4]) came to 5.9 nM.

Turning to `CN1CCC(=C(F)c2cccc(NC(=O)c3c(F)cc(F)cc3F)n2)CC1` [Example 12, 2,4,6-trifluoro-N-(6-(fluoro(1-methylpiperidin-4-ylidene)methyl)pyridine-2-yl)benzamide], in data set [1], the EC50 was found to be 1.5 nM. Besides, the AUC(0-inf) in data set [2] (SD, rat, plasma, iv, rats, i.v group, 1 mg/kg, read-out: AUCINF) came to 114 ng·h/mL; in data set [2] (SD, rat, plasma, po, rats, i.g group, 5 mg/kg, read-out: AUCINF), 354 ng·h/mL; in data set [3] (Beagle, dog, plasma, iv, dogs, i.v group, 1 mg/kg, read-out: AUCINF), 660 ng·h/mL; in data set [3] (Beagle, dog, plasma, po, dogs, i.g group, 5 mg/kg, read-out: AUCINF) it was 705 ng·h/mL. For the same compound, the AUC(0-t) in data set [2] (SD, rat, plasma, iv, rats, i.v group, 1 mg/kg, read-out: AUClast) worked out at 111 ng·h/mL; in data set [2] (SD, rat, plasma, po, rats, i.g group, 5 mg/kg, read-out: AUClast) it was 296 ng·h/mL; in data set [3] (Beagle, dog, plasma, iv, dogs, i.v group, 1 mg/kg, read-out: AUClast), 652 ng·h/mL; in data set [3] (Beagle, dog, plasma, po, dogs, i.g group, 5 mg/kg, read-out: AUClast), 691 ng·h/mL. Moreover, the clearance in data set [2] (SD, rat, plasma, iv, rats, i.v group, 1 mg/kg, read-out: Cl) is 146 mL/min/kg; in data set [3] (Beagle, dog, plasma, iv, dogs, i.v group, 1 mg/kg, read-out: Cl), 25.2 mL/min/kg. Also, the peak concentration (Cmax) in data set [2] (SD, rat, plasma, iv, rats, i.v group, 1 mg/kg, read-out: Cmax) turned out to be 80.5 ng/mL; in data set [2] (SD, rat, plasma, po, rats, i.g group, 5 mg/kg, read-out: Cmax), 71.8 ng/mL; in data set [3] (Beagle, dog, plasma, iv, dogs, i.v group, 1 mg/kg, read-out: Cmax) it was 170 ng/mL; in data set [3] (Beagle, dog, plasma, po, dogs, i.g group, 5 mg/kg, read-out: Cmax), 82.8 ng/mL. Moreover, the MRT inf in data set [2] (SD, rat, plasma, iv, rats, i.v group, 1 mg/kg, read-out: MRTINF) is 1.66 h; in data set [2] (SD, rat, plasma, po, rats, i.g group, 5 mg/kg, read-out: MRTINF) it was 4.05 h; in data set [3] (Beagle, dog, plasma, iv, dogs, i.v group, 1 mg/kg, read-out: MRTINF), 4.11 h; in data set [3] (Beagle, dog, plasma, po, dogs, i.g group, 5 mg/kg, read-out: MRTINF) it was 5.98 h. Moreover, the half-life was 1.38 h in data set [2] (SD, rat, plasma, iv, rats, i.v group, 1 mg/kg, read-out: T1/2 (converted)); 2.31 h in data set [2] (SD, rat, plasma, po, rats, i.g group, 5 mg/kg, read-out: T1/2 (converted)); 3.52 h in data set [3] (Beagle, dog, plasma, iv, dogs, i.v group, 1 mg/kg, read-out: T1/2 (converted)); 4.28 h in data set [3] (Beagle, dog, plasma, po, dogs, i.g group, 5 mg/kg, read-out: T1/2 (converted)). Further, the time to peak (Tmax) in data set [2] (SD, rat, plasma, iv, rats, i.v group, 1 mg/kg, read-out: Tmax) amounted to 0.083 h; in data set [2] (SD, rat, plasma, po, rats, i.g group, 5 mg/kg, read-out: Tmax), 2 h; in data set [3] (Beagle, dog, plasma, iv, dogs, i.v group, 1 mg/kg, read-out: Tmax), 0.25 h; in data set [3] (Beagle, dog, plasma, po, dogs, i.g group, 5 mg/kg, read-out: Tmax) it was 1.67 h. Moreover, the Vd was found to be 14.6 L/kg in data set [2] (SD, rat, plasma, iv, rats, i.v group, 1 mg/kg, read-out: Vss) and 6.22 L/kg in data set [3] (Beagle, dog, plasma, iv, dogs, i.v group, 1 mg/kg, read-out: Vss). In addition, the F in data set [2] (rats, i.g group, 5 mg/kg) is on record as 62%; in data set [3] (dogs, i.g group, 5 mg/kg), 21.4%.
